The results in this text go back to patent US8097585B2, “Methods of treating inflammation by administration of heme oxygenase-1 and products of heme degradation” (priority 2002, dated 2012).

Experiment [1] has as its system DBA/2 islets in diabetic B6AF1 recipients. Briefly: Allogeneic islet transplantation, graft survival and tolerance test. In kind it is in vivo, mice. As for the experimental part: Animals. Male DBA/2, B6AF1 and DBA/1 mice 6-8 week of age (Jackson) are used in the experiments. Mice were kept for 2 weeks at 4 mice/cage and fed normal laboratory chow before using for the experiment.
Treatment protocol. Recipients were rendered diabetic using streptozotocin (STZ, 225 mg/kg). Five days after STZ administration, animals with two consecutive blood glucose levels exceeding 350 mg/dl are used as recipients. Islets (500) are transplanted under the kidney capsule of the recipients.
Reagents. Cobalt protoporphyrin (CoPPIX, Porphyrin Products, Logan, Utah), biliverdin dihydrochloride and bilirubin (ICN Biomedicals Inc., OH) were dissolved in a small amount of 0.2 M NaOH, subsequently adjusted to a pH of 7.4 with 1 M HCl, and diluted in 1×PBS. The stock solutions (CoPPIX=2 mg/ml, biliverdin=3.2 mg/ml, bilirubin=0.5 mg/ml) were aliquoted and kept at −70° C. until used. Light exposure was limited as much as possible.
Induction of HO-1/Administration of biliverdin/bilirubin. When given to the donor, CoPPIX (20 mg/kg) was given 24 hours before islet isolation to induce HO-1 expression. To verify HO-1 expression in different organs after CoPP treatment, tissue samples are collected 24 hours after treatment and snap frozen in liquid nitrogen. Immunohistological analysis of HO-1 expression is performed using an anti-HO-1 antibody. CoPPIX (20 mg/kg) was administrated to the recipient intraperitoneally (i.p.) on day-1, 1, 3, 5 and 7. Biliverdin (50 μmol/kg) or bilirubin (8.5 μmol/kg) was given intraperitoneally to the donor one hour before islet isolation. For the recipient, biliverdin (50 μmol/kg) or bilirubin ([…]) was administered intraperitoneally either daily or twice per day from day-1 until day 13. No further treatment was given afterwards.
Measurement of Glucose level. Glucose levels were tested twice weekly after transplantation. Glucose levels of <200 mg/dl were considered normoglycemic. Grafts were considered rejected when two consecutive glucose levels were >300 mg/dl.
Tolerance test. The first graft was removed from a number of animals that had islets surviving long-term (longer than 100 days) by doing a nephrectomy. Islets syngeneic with the original donor were transplanted under the contralateral kidney capsule without further treatment. If those second transplanted islets also survived longer than 100 days without further treatment, the recipients were considered tolerant.

In experiment [2] the test system is DSS-colitis. Briefly: DSS-colitis (acute colitis) mouse model: weight loss, DAI, symptoms, crypt score. It is filed as in vivo, C57BL/6 mice. From the text: Animals. Pathogen-free male C57BL/6 mice, 4-6 weeks of age (Taconic; C57BL/6×129 svj strain) were used in this example. Mice were kept for one week at 4 mice/cage and fed normal laboratory chow and drinking water ad libitum prior to the experiments. All mice weighed between 22.5 g and 27.7 g at the beginning of the trial. The animal experimentation protocol was reviewed and approved by the Animal Care and Use Committees of the Beth Israel Deaconess Medical Center.
Induction of Colitis. Colitis was induced by feeding mice 5% (wt/v) dextran sodium sulfate (DSS) (MW 40,000; ICN Biomedicals Inc., OH), dissolved in distilled water, for a period of 7 days. The resulting condition was termed “DSS-colitis.” Control animals were fed distilled water ad libitum. The mortality rate in the control group and the CO-treated group was 10% (2/20) and 14% (2/14), respectively. These animals were excluded from the statistical analysis. In the other groups, no mortality occurred during 7 days of 5% DSS treatment.
Experimental Reagents and Treatment Protocol. Cobalt protoporphyrin (CoPPIX), zinc protoporphyrin (ZnPPIX, Porphyrin Products, Logan, Utah) and biliverdin dihydrochloride (ICN Biomedicals Inc., OH) were dissolved in a small amount 0.2 M NaOH, subsequently adjusted to a pH of 7.4 with 1 M HCl, and diluted in 0.9% NaCl. The stock solutions (CoPPIX and ZnPPIX=1 mg/ml, biliverdin=10 mM) were aliquoted and kept at −70° C. until used. Light exposure was limited as much as possible. CoPPIX (5 mg/kg), ZnPPIX (20 mg/kg) and biliverdin (50 μmol/kg) were administered to the mice intraperitoneally (i.p.) 24 hours before induction of DSS-colitis and daily thereafter. Desferoxamine (DFO) was prepared in imidazole buffer (50 mM imidazole, 220 mM NaCl, pH 7.4). DFO was injected subcutaneously (s.c.) twice daily (125 mg/kg) or infused i.p. (130 mg/kg/day; pumping rate 0.5 μl/hour for 8 days) by miniosmotic Alzet™ pumps (Alza Corporation, Palo Alto, Calif.) (Postma et al., Exp. Parasitol. 89(3):323-30 1998). The pumps were installed i.p. 24 hours before induction of colitis. When animals were sacrificed at day 7 of DSS treatment, the pumps were removed and evaluated to determine if DFO application had taken place.
CO gas was administrated exogenously by putting animals in a CO exposure chamber (Otterbein et al., Nat. Med. 6(4):422-8, 2000). Briefly, CO at a concentration of 1% (10,000 parts per million (ppm)) in compressed air was mixed with balanced air (21% oxygen) in a stainless steel mixing cylinder before entering the exposure chamber. CO concentrations were controlled by varying the flow rates of CO in a mixing cylinder before delivery to the chamber. Because the flow rate is primarily determined by the O2 flow, only the CO flow was changed to deliver the final concentration to the exposure chamber. A CO analyzer (Interscan Corporation, Chatsworth, Calif.) was used to measure CO levels continuously in the chamber. Mice were placed in the chamber 24 hours before the induction of the colitis and were kept in the exposure chamber during the whole period of the experiment (total of 8 days). […] Animals were removed daily from the chamber to assess weight and stool.
Evaluation of Symptoms of Colitis. All animals were evaluated clinically on a daily basis. The evaluation of each animal included a measurement of weight, hemoccult positivity and examination of stool for the presence of gross blood and stool consistency. The disease activity index (DAI) was calculated by scoring percent weight loss, intestinal bleeding (no blood; occult blood=hemoccult+; gross blood) and stool consistency (normal stool=well-formed pellets; loose stool=pasty and semiformed stools; diarrhea=liquid stool that stuck to the anus) (Table 1).
The animals were sacrificed, and the whole colon from the colo-cecal junction to the anal verge was removed and gently cleaned of stool. […]

The subject of experiment [3] is recipient splenocytes. Description: Mixed lymphocyte culture with splenocytes of treated cardiac allograft recipients. It is filed as in vivo, mice. The following applies: harvested 5 days after cardiac transplantation, 72 hours culture with DBA/2 splenocytes; compared to controls. As for the experimental part: Mixed lymphocyte culture (MLC). Irradiated (25Gy, ^137Cs) DBA/2 splenocytes (5×10^5/well) were co-cultured with responders (5×10^5/well) in a 96 well round bottom plates for 3 days at 37° C., 95% air with 5% CO2. When using cells from cardiac recipients as responders, the co-culture period was 3 days without any further in vitro treatment. ^3H-thymidine (1 μCi/well) was added 16 hours before termination of cell culture, and ^3H-thymidine incorporation was measured.
Induction of HO-1 expression or biliverdin administration suppresses the T cell mediated alloimmune response in vivo. […] Recipient splenocytes harvested 5 days after cardiac transplantation were used as responder cells in an in vitro culture with DBA/2 splenocytes as feeder cells. Proliferation was measured at 72 hours (FIG. 9).

Experiment [4] concerns DBA/2 cardiac allografts in B6AF1 recipients. Briefly: Heterotopic cardiac allograft transplantation, graft survival. It is filed as in vivo, mice. As for the experimental part:
Animals. Male DBA/2 (H-2^d), B6AF1 (H-2^k/d,b) and FVB (H-2^q) mice were purchased from Jackson Lab. Inc. (Bar Harbor, Me.). They were maintained in the institutional specific-pathogen free facility, which has an appropriate light cycle with free access to water and chow ad libitum, and used for experiments at age of 6-10 weeks.
Cardiac transplantation. DBA2/J and B6AF1 mice were used as donor and recipient, respectively. Heterotopic heart transplantation was carried out according to the procedure of Corry and Russell (Corry et al., Transplant Proc. 5(1):733-5, 1973). […] Secondary heart grafting into the neck was performed using a cuff technique as described previously (Matsuura et al., Transplantation 51(4):896-8, 1991). Briefly, the heart graft was harvested from either DBA2/J (donor strain) or FVB (third-party strain) mice. The right jugular vein and the right common carotid artery of recipient were dissected, and a cuff (polyethylene or polyimide) was connected to these vessels. The graft aorta and pulmonary artery were sleeved over the cuff on the recipient's common carotid artery and the jugular vein, respectively, and fixed with a ligature. After transplantation, beating of the graft was monitored by daily palpation, and scored +1 to +4 according to the strength of graft contractions. Graft rejection was defined as cessation of beating, and was confirmed by direct inspection followed by histological examination.
Donor and recipient mice were treated either with CoPPIX (5 mg/kg/day), ZnPPIX (5 mg/kg/day) or biliverdin (administered once, twice or three times per day at a dose of 50 μmol/kg/dose). All reagents were administered by intraperitoneal (i.p.) injection. Donor animals were treated for 2 days, starting from 2 days before graft harvest (day-2 and day-1). Treatment of recipient mice was initiated one day before transplantation, and continued until 13 days post-transplant (day-1 to day 13). For the experiments using donor splenocyte infusion (DSI) on day-7 (DSI (D-7)), treatments of recipient animals (either with CoPPIX or ZnPPIX) started from day-8 and were terminated on day 6. Recipients received no further treatment. Spleen cells (2×10^7) isolated from DBA/2J mice as described herein were used for DSI treatment. The cells were injected via the penile vein with 200 μl of 0.9% saline solution.
Statistics. Cardiac graft survival was plotted by the Kaplan-Meier method, and a log-rank test was applied to compare statistical significance. Expression levels of HO-1/α-actin protein are expressed as mean±standard deviation. Other data are expressed as mean±standard error of the mean (mean±SEM). Intergroup statistical analysis was performed by one-way ANOVA, and Fisher's PSLD was used for a post-hoc test. A comparison was considered statistically significant when the p-value was <0.05.

Experiment [5] deals with HO-1. Description: HO activity assay on spleen and heart of treated mice. It is filed as in vivo, DBA/2J mice. The following applies: 5 mg/kg i.p., one day after treatment. As for the experimental part:
HO activity assay. DBA/2J mice were given either no treatment or CoPPIX or ZnPPIX at a dose of 5 mg/kg, i.p. (n=10 per group). One day after the treatment, the animals were sacrificed, the spleen and the heart were excised, and tissue samples were frozen at −80° C. Frozen tissue samples were homogenized in ice-cold sucrose and Tris-HCl buffer. The microsomal pellet was obtained after centrifugation and re-suspended in MgCl2-potassium phosphate buffer. Sample protein was then incubated with the reaction mixture containing rat liver cytosol, hemin, glucose-6-phosphate, glucose-6-phosphate dehydrogenase and NADPH (Sigma-Aldrich Corporation, St. Louis, Mo.) for 60 minutes at 37° C. The generated bilirubin was measured by reacting with diazotized surfanilic acid to yield azobilirubin using spectrophotometer.

For `C=CC1=C(C)/C(=C/c2[nH]c(Cc3[nH]c(/C=C4\NC(=O)C(C)=C4C=C)c(C)c3CCC(=O)O)c(CCC(=O)O)c2C)NC1=O` [bilirubin], the “long-term survival of islets” value in experiment [1] (2 dose per day (every twelve hours)) turned out to be 100%; in experiment [1] (single dose per day to donor and recipient) it was 50%.

Regarding `CC(=O)N(O)CCCCCNC(=O)CCC(=O)N(O)CCCCCNC(=O)CCC(=O)N(O)CCCCCN` [DFO, Desferoxamine], the “protective effect on DSS-colitis” value in experiment [2] (intraperitoneal osmotic pumps, 130 mg/kg/d) is reported as “no protective effect was observed”; in experiment [2] (subcutaneous injections of 125 mg/kg twice daily) it was “no protective effect”.

`C=CC1=C(C)c2cc3[n-]c(cc4nc(cc5[n-]c(cc1n2)c(C)c5C=C)C(C)=C4CCC(=O)O)c(CCC(=O)O)c3C.[Zn+2]` [ZnPP, zinc protoporphyrin]: in experiment [3], the “proliferation of recipient splenocytes” value is recorded as “did not”. In addition, the “effect on natural course of DSS colitis” value in experiment [2] (ZnPPIX 20 mg/kg i.p. daily, compared to untreated animals) is “no significant changes”. Moreover, the graft prolongation effect result in experiment [4] (ZnPPIX plus DSI (D0), compared to control or DSI (D0) alone) is recorded as “no significant graft prolongation effect”. Moreover, in experiment [4] (ZnPPIX plus DSI (D-7)), the “allografts with long-term survival” value is 0/9 and the “graft MST” value is 13 days. Moreover, in experiment [4] (one dose per day i.p. (ZnPPIX 5 mg/kg; biliverdin 50 μmol/kg), untreated 11.5 days), the “graft median survival time (MST)” value is recorded as 11 days. The HO-1 enzymatic activity result in experiment [5] is “this was not the case”.
